Laboratory results reported in patent US9982026B2, “Compositions and methods for assessing and treating adrenal diseases and disorders” (YALE UNIVERSITY, priority 2011, dated 2018).
Residue numbers refer to the chain shown, from its start. Entries after “also recorded” stand apart in the source; their conditions may differ.

Tests used:
[1] = target: T1, KCNJ3/KCNJ5WT in 293T cells (Homo sapiens, UniProt P48544+P48549); assay: Whole-cell patch clamp of KCNJ3/KCNJ5 heterotetramers, Ba2+ block; assay type: cell-based; conditions: 1 mM BaCl2 in extracellular solution; listed as Ba2+
T1 construct: #SC118769 (KCNJ3); host or cells: 293T
T1 sequence (P48544 1-419): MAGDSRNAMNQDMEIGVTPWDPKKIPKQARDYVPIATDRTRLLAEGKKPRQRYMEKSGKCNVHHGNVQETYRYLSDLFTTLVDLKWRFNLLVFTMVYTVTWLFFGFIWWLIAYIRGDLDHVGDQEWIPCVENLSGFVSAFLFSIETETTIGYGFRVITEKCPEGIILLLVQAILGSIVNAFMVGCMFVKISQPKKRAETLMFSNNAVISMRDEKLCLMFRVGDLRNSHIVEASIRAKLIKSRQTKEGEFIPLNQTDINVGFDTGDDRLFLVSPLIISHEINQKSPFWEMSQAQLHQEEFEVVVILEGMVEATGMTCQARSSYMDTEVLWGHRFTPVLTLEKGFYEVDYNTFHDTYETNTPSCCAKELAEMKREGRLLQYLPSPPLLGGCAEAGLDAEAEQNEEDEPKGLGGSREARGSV
T1 sequence (P48549 1-501): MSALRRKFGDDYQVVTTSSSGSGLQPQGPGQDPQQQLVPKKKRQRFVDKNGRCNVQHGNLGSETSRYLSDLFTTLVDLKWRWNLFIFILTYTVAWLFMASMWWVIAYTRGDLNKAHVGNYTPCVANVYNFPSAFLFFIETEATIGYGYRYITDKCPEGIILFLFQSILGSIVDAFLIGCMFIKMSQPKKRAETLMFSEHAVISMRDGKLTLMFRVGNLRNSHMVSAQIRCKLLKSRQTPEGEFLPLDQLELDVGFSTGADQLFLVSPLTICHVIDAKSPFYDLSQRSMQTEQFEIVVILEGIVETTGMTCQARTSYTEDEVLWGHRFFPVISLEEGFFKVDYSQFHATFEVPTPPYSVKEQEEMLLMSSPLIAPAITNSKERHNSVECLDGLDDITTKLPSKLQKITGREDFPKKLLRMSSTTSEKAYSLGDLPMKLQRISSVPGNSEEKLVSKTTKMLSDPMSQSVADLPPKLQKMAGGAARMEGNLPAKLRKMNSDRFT
Protocol: (§1) FIG. 3A depicts the results of representative whole-cell recordings of 293T cells transfected with empty vector or KCNJ3 plus WT or mutant KCNJ5. […] Middle row: 1 mM BaCl2 was added. Bottom row: 140 mM choline chloride was substituted for extracellular NaCl. FIG. 3B depicts the current-voltage relationships from cells expressing indicated constructs (n=3 to 7 for each construct). Reversal potentials in control conditions are indicated. […] FIG. 3C depicts that the K+:Na+ permeability ratios calculated from the reversal potentials show loss of ion selectivity of the mutant channels. Data in FIGS. 3B and 3C are shown as mean±SEM.
(§2) Empty vector was used as a control. Cells were examined one day after transient transfection.
(§3) 1 mM BaCl2 was used to block Kir channels. […] All data are shown as mean±SEM.

[2] = target: T2, KCNJ3/KCNJ5G151R in 293T cells (Homo sapiens, UniProt P48544+P48549, G151R); assay: as above; assay type: cell-based; conditions: 1 mM BaCl2 in extracellular solution
T2 construct: #SC118769 (KCNJ3); host or cells: 293T
T2 sequence (P48544 1-419 G151R): T1 sequence (P48544 1-419) with G151R
T2 sequence (P48549 1-501): T1 sequence (P48549 1-501)
Protocol: as §1, §2, §3

[3] = target: T3, KCNJ5 WT homotetramers in 293T cells (Homo sapiens, UniProt P48544); assay: Whole-cell patch clamp of KCNJ5 homotetramers, Ba2+ block; assay type: cell-based; conditions: 1 mM BaCl2 in extracellular fluid, symmetric high K+ solutions
T3 construct: host or cells: 293T
T3 sequence (P48544 1-419): T1 sequence (P48544 1-419)
Protocol: Because of low current amplitude of homotetrameric channels, currents were measured under symmetrical high Na+ or high K+ conditions, which increases current amplitude (Owen et al., 1999, Exp Physiol 84:471-488; Andreoli, et al., Eds., Molecular Biology of Membrane Transport Disorders (Plenum Press, New York, ed. 2, 1996), chap. 5) (FIGS. 13A-13D); reversal potentials and permeability ratios were determined using physiological solutions (FIGS. 13E, 13F). (FIG. 13A) Representative whole-cell recordings showing K+ and Na+ currents in 293T cells transfected with KCNJ5, KCNJ5G151R, KCNJ5L168R, and KCNJ5T158A. […] (FIGS. 13B, 13C) Current-voltage relationships from cells expressing the indicated constructs with symmetric high K+ or high Na+ solutions as in FIG. 13A. […] Relative permeabilities of K+:Na+ were determined in physiologic solutions as described in FIG. 13E. (FIG. 13E) Reversal potential of 293T cells transfected with WT or mutant KCNJ5 using physiological solutions. […] The reversal potential for the homotetramers was determined by a ramp protocol ranging from −100 to +100 mV after forming a high resistance seal. […]
To analyze homomeric wild-type or mutant KCNJ5 currents, 1 μg of cDNA was transfected. […] For each construct, currents were measured in two conditions. […] The reversal potential was determined using a ramp protocol ranging from −100 to +100 mV after forming a high resistance seal. […]

[4] = tested on: KCNJ3 plus mutant KCNJ5 in 293T cells; assay: Whole-cell patch clamp of KCNJ3/KCNJ5 heterotetramers, Ba2+ block; assay type: cell-based, human; conditions: 1 mM BaCl2 in extracellular solution; mutant channels G151R, L168R, T158A
Protocol: as §1, §2, §3

[5] = target: KCNJ3/KCNJ5WT cotransfected with the dopamine D2 receptor in 293T cells (Homo sapiens, UniProt P14416); conditions: 1 μM dopamine, current amplitudes at −100 mV, before vs after addition, n=4
KCNJ3/KCNJ5WT cotransfected with the dopamine D2 receptor in 293T cells, sequence (P14416 whole entry): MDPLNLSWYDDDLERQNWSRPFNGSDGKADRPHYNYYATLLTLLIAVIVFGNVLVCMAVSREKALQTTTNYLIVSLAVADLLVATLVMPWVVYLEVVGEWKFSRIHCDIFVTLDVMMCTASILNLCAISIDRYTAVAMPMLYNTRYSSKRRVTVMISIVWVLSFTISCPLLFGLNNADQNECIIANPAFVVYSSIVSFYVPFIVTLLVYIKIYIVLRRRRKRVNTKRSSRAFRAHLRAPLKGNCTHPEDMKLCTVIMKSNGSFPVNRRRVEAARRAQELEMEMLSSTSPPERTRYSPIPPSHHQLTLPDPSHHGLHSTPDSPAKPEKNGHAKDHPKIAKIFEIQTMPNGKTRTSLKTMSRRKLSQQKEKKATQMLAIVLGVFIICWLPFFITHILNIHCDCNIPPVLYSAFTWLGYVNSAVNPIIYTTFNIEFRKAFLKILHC
Protocol: Representative whole-cell recordings of 293T cells cotransfected with KCNJ3/KCNJ5WT and the dopamine D2 receptor are shown. The pipette holding potential was 0 mV before clamping, and the cell was clamped from −100 to 60 mV with 20 mV increments before (left) and after (right) addition of 1 μM dopamine. The extracellular solution contained 140 mM NaCl, 5 mM KCl, 1.8 mM MgCl2, 1.8 mM CaCl2, and 10 mM HEPES, pH 7.4, while the intracellular solution contained 140 mM KCl, 4 mM MgCl2, 1 mM CaCl2, 1 mM EGTA, and 5 mM HEPES, pH 7.4. […] (FIG. 12B) Mean±SEM of current amplitudes measured at −100 mV before (control) and after addition of dopamine as in FIG. 12A (n=4).
293T cells were transfected with plasmid DNA using TransIT®-293 Transfection Reagent (Mirus) according to the manufacturer's instructions. Empty vector was used as a control. Cells were examined one day after transient transfection. Standard perforated whole-cell patch clamp recordings were performed on GFP-positive cells using an Axopatch 200A (Axon Instruments) amplifier. […]
Cells were cotransfected with 0.8 μg wild-type or mutant KCNJ5 and 0.5 μg KCNJ3 cDNA. […] Endogenous currents of 293T cells transfected with empty vector were measured from −100 to 60 mV. […] Data were analyzed by a combination of Axon Clampfit9.2 (Molecular Devices) and SigmaPlot (Jandel Scientific) programs. Data from 3-7 cells were analyzed for each construct. […]

Structure (SMILES) | inhibition of current by Ba2+ [1] | inhibition of current by Ba2+ [2] | inhibition of channel activity [3] | inhibition of current by Ba2+ [4] | increase of current [5]
[Ba+2].[Cl-].[Cl-] [BaCl2] | inhibited; also recorded: inhibits the WT channel | loss of inhibition | inhibited WT channel activity | variable inhibition | 
Cl.NCCc1ccc(O)c(O)c1 [Dopamine, dopamine hydrochloride] |  |  |  |  | ~50%
